Measured values reported in US4185015A, “Methoxymethyl 6-[D-2,2-dimethyl-4-(4-hydroxyphenyl)-5-oxo-1-imidazolyl]penicillanate” (priority 1977, dated 1980).
In brackets after ≈: the same amount, converted by molar mass. Where two headings read alike, the source gives them in different places. Blank lines part the entries; values can stand above or below the molecule they belong to.

How the values were obtained:
[1] = system: Pr. mirabilis; test: MIC against various organisms (Table I); format: cell-based; details: Proteus mirabilis, read-out: minimum inhibitory concentration
[2] = system: K. pneumoniae; test: MIC against various organisms (Table I); format: cell-based; details: Klebsiella pneumoniae, read-out: minimum inhibitory concentration
[3] = system: D. pneumoniae; test: MIC against various organisms (Table I); format: cell-based; details: Streptococcus pneumoniae; D. pneumoniae + 5% serum; read-out: minimum inhibitory concentration
[4] = system: Pr. morganii; test: MIC against various organisms (Table I); format: cell-based; details: Morganella morganii, read-out: minimum inhibitory concentration
[5] = system: S. aureus; test: MIC against various organisms (Table I); format: cell-based; details: Staphylococcus aureus, read-out: minimum inhibitory concentration
[6] = system: E. coli; test: MIC against various organisms (Table I); format: cell-based; details: Escherichia coli, read-out: minimum inhibitory concentration
[7] = system: E. coli Juhl; test: MIC against various organisms (Table I); format: cell-based; details: Escherichia coli, read-out: minimum inhibitory concentration
[8] = system: Str. pyogenes; test: MIC against various organisms (Table I); format: cell-based; details: Streptococcus pyogenes; Str. pyogenes + 5% serum; read-out: minimum inhibitory concentration
[9] = system: Ps. aeruginosa; test: MIC against various organisms (Table I); format: cell-based; details: Pseudomonas aeruginosa, read-out: minimum inhibitory concentration
[10] = in vivo; design: species or system mice; details: mouse, po, 50 mg/kg
[11] = system: S. aureus Smith; test: MIC against various organisms (Table I); format: cell-based; details: Staphylococcus aureus, read-out: minimum inhibitory concentration
[12] = system: Ser. marcescens; test: MIC against various organisms (Table I); format: cell-based; details: Serratia marcescens, read-out: minimum inhibitory concentration
[13] = system: Sal. enteritidis; test: MIC against various organisms (Table I); format: cell-based; details: Salmonella enterica, read-out: minimum inhibitory concentration
[14] = system: S. aureus BX1633; test: MIC against various organisms (Table I); format: cell-based; details: Staphylococcus aureus
[15] = system: E. coli; test: MIC in Nutrient Broth (Table III); format: cell-based; details: Escherichia coli; E. coli (10^-4)
Excerpt: (§1) Organism in Nutrient Broth
(§2) **Dilution of overnight broth culture

[16] = system: Ps. aeruginosa; test: MIC in Nutrient Broth (Table III); format: cell-based; details: Pseudomonas aeruginosa
Excerpt: as §1, §2

[17] = system: Pr. morganii; test: MIC in Nutrient Broth (Table III); format: cell-based; details: Morganella morganii
Excerpt: as §1, §2

[18] = system: K. pneumoniae; test: MIC in Nutrient Broth (Table III); format: cell-based; details: Klebsiella pneumoniae
Excerpt: as §1, §2

[19] = system: Pr. mirabilis; test: MIC in Nutrient Broth (Table III); format: cell-based; details: Proteus mirabilis; Pr. mirabilis (10^-4)
Excerpt: as §1, §2

[20] = system: E. coli Juhl; test: MIC in Nutrient Broth (Table III); format: cell-based; details: Escherichia coli; E. coli Juhl (10^-4)
Excerpt: as §1, §2

[21] = system: Sal. enteritidis; test: MIC in Nutrient Broth (Table III); format: cell-based; details: Salmonella enterica; Sal. enteritidis (10^-4)
Excerpt: as §1, §2

[22] = system: S. aureus BX1633; test: MIC in Nutrient Broth (Table III); format: cell-based; details: Staphylococcus aureus
Excerpt: as §1, §2

[23] = system: S. aureus Meth.-Res.; test: MIC in Nutrient Broth (Table III); format: cell-based; details: Staphylococcus aureus, S. aureus Meth.-Res. (10^-3), read-out: MIC
Excerpt: as §1, §2

[24] = system: S. aureus Smith; test: MIC in Nutrient Broth (Table III); format: cell-based; details: Staphylococcus aureus, S. aureus Smith (10^-4)
Excerpt: as §1, §2

[25] = system: Ser. marcescens; test: MIC in Nutrient Broth (Table III); format: cell-based; details: Serratia marcescens; Ser. marcescens (10^-4)
Excerpt: as §1, §2

[26] = system: Ent. cloacae; test: MIC in Nutrient Broth (Table III); format: cell-based; details: Enterobacter cloacae, Ent. cloacae (10^-4)
Excerpt: as §1, §2

[27] = system: Str. pneumoniae; test: MIC in Nutrient Broth (Table III); format: cell-based; details: Streptococcus pneumoniae, 10^-3 dilution of overnight broth culture, 45% AAB, 5% serum, 50% broth
Excerpt: as §1
(§3) *45% AAB 5% serum 50% broth listed above,
as §2

[28] = system: Str. pyogenes; test: MIC in Nutrient Broth (Table III); format: cell-based; details: Streptococcus pyogenes, 10^-3 dilution of overnight broth culture, 45% AAB, 5% serum, 50% broth
Excerpt: as §1, §3, §2

[29] = Oral absorption in man, BL-P1780 Study 101; details: in vivo, po
Procedure: (§4) Only the latter are biologically active per se. Also, both original ester and parent penicillin were measured.
Three formulations were each administered once orally to six (6) healthy adult male subjects in BL-P1780 Study 101 as follows:
A. BL-P1780, 500 mg. (of amoxicillin-equivalent activity) as two 250 mg. buffered tablets.
B. BL-P1780, 500 mg. (an amoxicillin-equivalent activity) as two 250 mg. buffered tablets with 3.5 g. sodium bicarbonate being taken five minutes prior to the adminstration of BL-P1780.
C. Amoxicillin, 500 mg. as two 250 mg. capsules.
1. To investigate the human safety and tolerance of single 500 mg. doses of BL-P1780.
2. To determine the effect of intragastric buffering with sodium bicarbonate on the absorption of BL-P1780.
3. To compare amoxicillin plasma and saliva concentrations and urinary excretion between BL-P1780 and amoxicillin.

[30] = in vivo
Procedure: as §4

[31] = K. pneumoniae, first of two lines
[32] = K. pneumoniae (10^-4), first of two lines, read-out: MIC
[33] = BX1633, S. aureus BX1633 (10^-3), read-out: MIC
[34] = second of three lines, read-out: MIC

Compound: CC1(C)S[C@@H]2[C@H](NC(=O)[C@H](N)c3ccccc3)C(=O)N2[C@H]1C(=O)O [Cpd. A, ampicillin]
MIC [1]: 0.16 µg/mL (≈ 0.458 µM)
MIC [2, 31]: 0.3 µg/mL (≈ 0.859 µM)
MIC [2]: 125 µg/mL (≈ 358 µM)
MIC [3]: 0.004 µg/mL
MIC [4]: > 125 µg/mL
MIC ([5]; first of three lines): 125 µg/mL (≈ 358 µM)
MIC ([5]; second of three lines): 125 µg/mL (≈ 358 µM)
MIC ([5]; third of three lines): > 125 µg/mL
MIC [6]: 32 µg/mL (≈ 91.6 µM)
MIC [7]: 1 µg/mL (≈ 2.86 µM)
MIC [8]: 0.004 µg/mL
MIC [9]: > 125 µg/mL
concentration at 0.5 h [10]: 3300 ng/mL
concentration at 1 h [10]: 2100 ng/mL
concentration at 2 h [10]: 900 ng/mL
concentration at 3.5 h [10]: 500 ng/mL
MIC ([11]; S. aureus Smith + 50% serum): 0.06 µg/mL
MIC ([11]; S. aureus Smith): 0.03 µg/mL (≈ 0.0859 µM)
MIC [12]: 32 µg/mL (≈ 91.6 µM)
MIC [13]: 0.13 µg/mL (≈ 0.372 µM)
MIC ([14]; BX1633, read-out: minimum inhibitory concentration, S. aureus BX1633, first of two lines): 125 µg/mL (≈ 358 µM)
MIC ([14]; BX1633, read-out: minimum inhibitory concentration, S. aureus BX1633, second of two lines): > 125 µg/mL

concentration at 0.5 h [10]: 2000 ng/mL
concentration at 2 h [10]: 1100 ng/mL
concentration at 3.5 h [10]: 500 ng/mL
Compound: CC1(C)S[C@@H]2[C@H](N3C(=O)[C@@H](c4ccccc4)NC3(C)C)C(=O)N2[C@H]1C(=O)O [Compound 3, D-6-(2,2-dimethyl-5-oxo-4-phenyl-1-imidazolidinyl)penicillanic acid]

Compound: CC1(C)S[C@@H]2[C@H](NC(=O)[C@H](N)c3ccc(O)cc3)C(=O)N2[C@H]1C(=O)O [Amoxicillin Trihydrate]
MIC [15]: 16 µg/mL
MIC [16]: > 125 µg/mL
MIC [17]: > 125 µg/mL
MIC [18]: > 125 µg/mL
MIC [18, 32]: 0.25 µg/mL
MIC [19]: 0.25 µg/mL
MIC [20]: 1 µg/mL
MIC [21]: 0.25 µg/mL
MIC ([22]; BX1633): > 125 µg/mL
MIC [22, 33]: 16 µg/mL
MIC ([23]; 28° C.): 32 µg/mL
MIC ([23]; 37° C.): 63 µg/mL
MIC [24]: 0.13 µg/mL
MIC [25]: 32 µg/mL
MIC ([26]; first of three lines): > 125 µg/mL
MIC [26, 34]: 63 µg/mL
MIC ([26]; third of three lines): 125 µg/mL
MIC [27]: 0.016 µg/mL
MIC [28]: 0.016 µg/mL

Compound: COCOC(=O)[C@@H]1N2C(=O)[C@@H](N3C(=O)[C@@H](c4ccc(O)cc4)NC3(C)C)[C@H]2SC1(C)C [Example 8, methoxymethyl 6-[D-(-)-2,2-dimethyl-4-(4-hydroxyphenyl)-5-oxo-1-imidazolyl]-penicillanate]
need of intragastric buffering for bioavailability or tissue distribution [29]: not necessary
MIC [1]: 0.16 µg/mL (≈ 0.356 µM)
MIC [2, 31]: 0.16 µg/mL (≈ 0.356 µM)
MIC ([2]; K. pneumoniae, second of two lines): > 125 µg/mL
MIC [3]: 0.004 µg/mL
MIC ([4]; Pr. morganii): 32 µg/mL (≈ 71.2 µM)
MIC ([5]; third of three lines): > 125 µg/mL
MIC [6]: 32 µg/mL (≈ 71.2 µM)
MIC [15]: 32 µg/mL (≈ 71.2 µM)
MIC ([16]; Ps. aeruginosa (10^-4), read-out: MIC): > 125 µg/mL
MIC ([17]; Pr. morganii (10^-4), read-out: MIC): > 125 µg/mL
MIC [18, 32]: 0.13 µg/mL (≈ 0.289 µM)
MIC ([18]; K. pneumoniae (10^-4), second of two lines, read-out: MIC): > 125 µg/mL
MIC [19]: 0.25 µg/mL (≈ 0.556 µM)
MIC [20]: 1 µg/mL (≈ 2.22 µM)
MIC [21]: 1 µg/mL (≈ 2.22 µM)
MIC ([22]; BX1633, S. aureus BX1633 (10^-2), read-out: MIC): > 125 µg/mL
MIC [22, 33]: 16 µg/mL (≈ 35.6 µM)
MIC ([23]; 28° C.): 63 µg/mL (≈ 140 µM)
MIC ([23]; 37° C.): 125 µg/mL (≈ 278 µM)
MIC [24]: 0.13 µg/mL (≈ 0.289 µM)
MIC [25]: > 125 µg/mL
MIC ([26]; first of three lines, read-out: MIC): 125 µg/mL (≈ 278 µM)
MIC [26, 34]: 125 µg/mL (≈ 278 µM)
MIC ([26]; third of three lines, read-out: MIC): 63 µg/mL (≈ 140 µM)
MIC [7]: 1 µg/mL (≈ 2.22 µM)
MIC [8]: 0.004 µg/mL
MIC ([9]; Ps. aeruginosa): > 125 µg/mL
concentration at 0.5 h [10]: 4800 ng/mL
concentration at 1 h [10]: 3500 ng/mL
concentration at 2 h [10]: 1700 ng/mL
concentration at 3.5 h [10]: 700 ng/mL
MIC ([11]; S. aureus Smith + 50% serum): 0.06 µg/mL
MIC ([11]; S. aureus Smith): 0.06 µg/mL (≈ 0.133 µM)
MIC [12]: 32 µg/mL (≈ 71.2 µM)
tissue distribution of amoxicillin from BL-P1780 over that of ampicillin, amoxicillin or ampicillin from sarpicillin [30]: markedly improved tissue distribution
hydrolysis of the ester ([30]; po): hydrolyze eventually to their parent penicillins
MIC [13]: 0.13 µg/mL (≈ 0.289 µM)
MIC ([14]; BX1633, S. aureus BX1633, first of two lines, read-out: minimum inhibitory concentration): 125 µg/mL (≈ 278 µM)
MIC ([14]; BX1633, S. aureus BX1633, second of two lines, read-out: minimum inhibitory concentration): > 125 µg/mL
MIC [27]: 0.008 µg/mL (≈ 0.0178 µM)
MIC [28]: 0.008 µg/mL (≈ 0.0178 µM)
